# Experimental data from patent US20090093423A2, “NOVEL 2-SUBSTITUTED METHYL PENAM DERIVATIVES” (Orchid Chemicals and Pharmaceuticals Limited, priority 2006, published 2009).
# How the values were obtained:
# Penicillinase enzyme = assay: β-Lactamase assay (Centa substrate); assay type: biochemical; conditions: FIG. 1
# Procedure: Representative novel compounds were subjected to β-lactamase assay to determine and compare their IC50 with that of Tazo as described elsewhere (Bebrone et. al, 2001, Antimicrob. Agents. Chemother. 45(6): 1868-1871; Jamieson et. al, 2003, Antimicrob. Agents. Chemother. 47(5): 1652-1657). Briefly enzyme inhibition assays with Tazo acid as the standard inhibitor for % inhibitions & IC50 value with optimized concentrations of Penicillinase enzyme & Centa β-lactamase substrate were performed.
# [1] = system: strains resistant to Fluoroquinolones; conditions: Kriengkauykiat et al. 2005; cited from earlier work
# A. baumani MRO 14514 = assay: MIC, Agar Dilution Method, resistant clinical isolate; assay type: cell-based
# Procedure: (§1) The novel compounds were tested for the in vitro antibacterial activities by the Agar Dilution Method as specified in documents published by NCCLS, now CLSI, USA. (National Committee for Clinical Laboratory Standards (NCCLS). 2003. Approved standard M7-A6. NCCLS, Villanova, Pa.).
# (§2) Tazo was also dissolved in same buffer to get a solution of, e.g., 1 mg/mL. Novel penam derivatives described herein were dissolved in water to get a solution of, e.g., 1 mg/mL.
# (§3) The novel compounds and Tazo were also tested individually. The bacterial inoculum was prepared by picking 3 to 5 well-isolated bacterial colonies with the same morphological appearance from an 18-24 h old culture and adjusting the turbidity of the saline suspension to 0.5 McFarland Turbidity Standard equivalent to a bacterial population of 1.5×10^8 colony forming units (CFU) per mL of suspension. The suspension was diluted 1:10 in saline (i.e. 0.5 mL suspension+4.5 mL saline) to get a bacterial population of 1.5×10^7 CFU/mL as inoculum. […] The inoculated petridishes were incubated at 35° C. in an ambient atmosphere for 16-20 h.
# A. baumani MRO 14515 = assay: as above; assay type: cell-based
# Procedure: as §1, §2, §3
# E. coli MRO 10135 = assay: as above; assay type: cell-based
# Procedure: as §1, §2, §3
# A. baumani MRO 14512 = assay: as above; assay type: cell-based
# Procedure: as §1, §2, §3
# [2] = system: strains resistant to Ceftazidime, Ciprofloxacin, and Piperacillin/Tazo combination; assay: MIC, Agar Dilution Method, resistant panel; assay type: cell-based
# Procedure: as §1, §2, §3
# [3] = Intravenous pharmacokinetics in mice; assay type: in vivo, Swiss mice
# From the text: Blood samples were collected at different time points. These samples were processed and analyzed by HPLC.
# [4] = Possibility of conversion of Example 1 to Tazo, LC-MS/MS of plasma; assay type: in vivo; conditions: Swiss mice, 8 mg/kg along with Piperacillin (32 mg/kg)
# Procedure: Blood samples were collected at different time points. These samples were processed and analyzed by LC-MS/MS, which has the capability of simultaneously detecting even the lower concentration of Tazo (20 ng/mL) and the compound obtained from Example 1 (10 ng/mL).
# [5] = Minimum bactericidal studies, broth macrodilution; assay type: cell-based
# Procedure: Minimum bactericidal studies were performed by broth macrodilution technique as described by NCCLS.
# E. coli MRO 10006 = assay: In vivo efficacy, infected mice; conditions: Swiss albino mice infected with E. coli MRO 10006; Piperacillin:inhibitor 4:1; 7-day survival
# Procedure: (§4) The efficacy studies were performed as described earlier (Kuck et al, 1989, Antimicrob. Agents. Chemother. 33(11): 1964-1969). Briefly, Swiss albino mice, 20+2 g, from in-house breeding facility were challenged by the intraperitoneal injection of bacterial suspensions in 0.5 mL of hog gastric mucin (10 to 100 50% lethal doses). […] All the untreated control animals died within 48 h of infection. In each experiment, in-house Tazo was used as an inhibitor control in four doses. Median (50%) effective dose (ED50) were determined by applying the Reed and Muench's method of the 7-day survival ratios.
# E. coli MRO 10007 = assay: In vivo efficacy, infected mice; conditions: Swiss albino mice infected with E. coli MRO 10007; Piperacillin:inhibitor 4:1; 7-day survival
# Procedure: as §4
# [6] = system: ESBL producing E. coli strains; assay: In vivo efficacy, infected mice
# Procedure: as §4
# K. pneumoniae MRO 11008 [7] = assay: In vivo efficacy, infected mice
# Procedure: as §4
# [8] = system: strains producing the TEM type ESBLs (TEM-10, TEM-12 and TEM-10 and -12); assay: MIC, Agar Dilution Method, TEM panel; assay type: cell-based; conditions: TEM-10, TEM-12 and TEM-10 and -12 strains; inhibitor 1 μg/mL and 2 μg/mL
# Procedure: as §1, §2, §3
# K. pneumoniae MRO 11008 [9] = assay: MIC, Agar Dilution Method; assay type: cell-based; conditions: ESBL producing K. pneumoniae strain; inhibitor 1 μg/mL
# Procedure: as §1, §2, §3
# [10] = system: K. pneumoniae ATCC 700603; assay: MIC, Agar Dilution Method; assay type: cell-based; conditions: K. pneumoniae 700603, SHV-18
# Procedure: as §1, §2, §3
# E. coli BAA-198 (TEM-26) = assay: MIC, Agar Dilution Method, ESBL producing ATCC isolate; assay type: cell-based
# Procedure: as §1, §2, §3
# E. coli BAA-199 (SHV-3) = assay: as above; assay type: cell-based
# Procedure: as §1, §2, §3
# [11] = system: K. pneumoniae 51503 (TEM-10 & -12); assay: as above; assay type: cell-based; conditions: inhibitor 4 μg/mL
# Procedure: as §1, §2, §3
# E. coli BAA-200 (SHV-4) = assay: as above; assay type: cell-based; conditions: for potentiation of Piperacillin compared to Tazo: SHV-4 ESBL producing strain
# Procedure: as §1, §2, §3
# [12] = system: P. mirabilis BAA-663 (TEM-89); assay: as above; assay type: cell-based
# Procedure: as §1, §2, §3
# E. coli BAA-197 (TEM-12) = assay: as above; assay type: cell-based; conditions: inhibitor 4 μg/mL
# Procedure: as §1, §2, §3
# E. coli BAA-196 (TEM-10) = assay: as above; assay type: cell-based; conditions: inhibitor 4 μg/mL
# Procedure: as §1, §2, §3
# E. coli BAA-201 (TEM-3) = assay: as above; assay type: cell-based
# Procedure: as §1, §2, §3
# E. coli BAA-202 (SHV-1) = assay: as above; assay type: cell-based
# Procedure: as §1, §2, §3
structure (smiles),measurement,setting,value
"CCC[n+]1ccn(C[C@@]2(C)[C@H](C(=O)[O-])N3C(=O)C[C@H]3S2(=O)=O)n1 [Example 3, 1-{[(2S,3S,5R)-2-Carboxy-3-methyl-4,4,7-trioxo-4-thia-1-azabicyclo[3.2.0]hept-3-yl]methyl}-3-n-propyl-1H-1,2,3-triazol-3-ium]",IC50 compared with Tazo,Penicillinase enzyme,comparatively lower
CC(C)(O/N=C(\C(=O)N[C@@H]1C(=O)N2C(C(=O)[O-])=C(C[n+]3ccccc3)CS[C@H]12)c1csc(N)n1)C(=O)O [Ceftazidime],cross-resistance of strains resistant to Fluoroquinolones,[1],76%
same,MIC (antibiotic alone),A. baumani MRO 14514,>64 µg/mL
same,MIC (antibiotic alone),A. baumani MRO 14515,>64 µg/mL
same,MIC (antibiotic alone),E. coli MRO 10135,>64 µg/mL
same,MIC (antibiotic alone),A. baumani MRO 14512,>64 µg/mL
"C[n+]1ccn(C[C@@]2(C)[C@H](C(=O)[O-])N3C(=O)C[C@H]3S2(=O)=O)n1 [Example 1, 1-{[(2S,3S,5R)-2-Carboxy-3-methyl-4,4,7-trioxo-4-thia-1-azabicyclo[3.2.0]hept-3-yl]methyl}-3-methyl-1H-1,2,3-triazol-3-ium]",potentiated the antibacterial activity of Piperacillin compared to that of Tazo,"[2]; inhibitor 4 μg/mL, strains resistant to Ceftazidime and Ciprofloxacin",2-16 fold
same,susceptibility of resistant strains to Piperacillin in combination,"[2]; strains resistant to Ceftazidime, Ciprofloxacin, and Piperacillin/Tazo combination",susceptible
same,C0,"[3]; Swiss, mouse, in vivo, iv, 8 mg/kg",15200 ng/mL
same,AUC(0-t),"[3]; Swiss, mouse, in vivo, iv, 8 mg/kg, read-out: AUC0-4 h",5370 ng·h/mL
same,AUC,"[3]; Swiss, mouse, in vivo, iv, 8 mg/kg, read-out: AUC0-∝",5830 ng·h/mL
same,half-life,"[3]; Swiss, mouse, in vivo, iv, 8 mg/kg, read-out: Elimination half-life (converted)",16.3 min
same,systemic exposure,"[3]; mice, intravenous, compared with Tazo",higher than that of Tazo
same,conversion to Tazo after intravenous administration (LC-MS/MS of plasma),[4],did not get converted to Tazo
same,"Minimum bactericidal concentration study, Piperacillin in combination with inhibitor",[5],bacteriostatic
same,IC50 compared with Tazo,Penicillinase enzyme,three-fold lower
same,ED50 of Piperacillin in combination with inhibitor,E. coli MRO 10006,22.62 mg/kg b.w.
same,ED50 of Piperacillin in combination with inhibitor,E. coli MRO 10007,24.88 mg/kg b.w.
same,"ED50 of Piperacillin in combination, compared to that in combination with Tazo",[6],two-fold lower
same,ED50 of Piperacillin in combination with inhibitor,"K. pneumoniae MRO 11008 [7]; Swiss albino mice infected with K. pneumoniae MRO 11008, Piperacillin:inhibitor 4:1, 7-day survival",34.89 mg/kg b.w.
same,increase of efficacy of Piperacillin,"K. pneumoniae MRO 11008 [7]; mice, ESBL producing K. pneumoniae strain resistant in vitro to Piperacillin with 1 μg/mL Tazo",three-fold
same,potentiation of Piperacillin compared to Tazo,[8],2-16 fold
same,in vitro potentiation of Piperacillin,K. pneumoniae MRO 11008 [9],16 fold
same,MIC of Piperacillin with different concentrations of Tazo or compound of Example 1,[10]; inhibitor 2 μg/mL,16 µg/mL
same,MIC of Piperacillin with different concentrations of Tazo or compound of Example 1,[10]; inhibitor 4 μg/mL,16 µg/mL
same,MIC of Piperacillin in combination with 4 μg/mL inhibitor,A. baumani MRO 14514; Pip + 4 μg/mL inhibitor,32 µg/mL
same,MIC of Piperacillin in combination with 4 μg/mL inhibitor,A. baumani MRO 14515; Pip + 4 μg/mL inhibitor,32 µg/mL
same,MIC of Piperacillin in combination with 4 μg/mL inhibitor,E. coli MRO 10135; Pip + 4 μg/mL inhibitor,16 µg/mL
same,MIC of Piperacillin in combination with 4 μg/mL inhibitor,A. baumani MRO 14512; Pip + 4 μg/mL inhibitor,4 µg/mL
same,MIC of Piperacillin with different concentrations of Tazo or compound of Example 1,E. coli BAA-198 (TEM-26); inhibitor 1 μg/mL,4 µg/mL
same,MIC of Piperacillin with different concentrations of Tazo or compound of Example 1,E. coli BAA-198 (TEM-26); inhibitor 2 μg/mL,4 µg/mL
same,MIC of Piperacillin with different concentrations of Tazo or compound of Example 1,E. coli BAA-198 (TEM-26); inhibitor 4 μg/mL,2 µg/mL
same,potentiation of Piperacillin compared to Tazo,"E. coli BAA-199 (SHV-3); SHV-3 ESBL producing strain, inhibitor 1 μg/mL",> 16 fold
same,potentiation of Piperacillin compared to Tazo,"E. coli BAA-199 (SHV-3); SHV-3 ESBL producing strain, inhibitor 2 μg/mL",> 32 fold
same,potentiation of Piperacillin compared to Tazo (in words),"E. coli BAA-199 (SHV-3); SHV-3 producing strain as printed (second mention), inhibitor 4 μg/mL",comparable with Tazo
same,potentiation of Piperacillin compared to Tazo,"E. coli BAA-199 (SHV-3); SHV-3 producing strain, inhibitor 4 μg/mL",> 64 fold
same,MIC of Piperacillin with different concentrations of Tazo or compound of Example 1,[11],8 µg/mL
same,MIC of Piperacillin with different concentrations of Tazo or compound of Example 1,"E. coli BAA-200 (SHV-4); E. coli BAA-200, SHV-4, inhibitor 4 μg/mL",2 µg/mL
same,potentiation of Piperacillin compared to Tazo,E. coli BAA-200 (SHV-4); inhibitor 1 μg/mL,> 16 fold
same,potentiation of Piperacillin compared to Tazo,E. coli BAA-200 (SHV-4); inhibitor 2 μg/mL,> 32 fold
same,MIC of Piperacillin with different concentrations of Tazo or compound of Example 1,[12]; inhibitor 1 μg/mL,16 µg/mL
same,MIC of Piperacillin with different concentrations of Tazo or compound of Example 1,[12]; inhibitor 2 μg/mL,8 µg/mL
same,MIC of Piperacillin with different concentrations of Tazo or compound of Example 1,[12]; inhibitor 4 μg/mL,8 µg/mL
same,MIC of Piperacillin with different concentrations of Tazo or compound of Example 1,E. coli BAA-197 (TEM-12),4 µg/mL
same,MIC of Piperacillin with different concentrations of Tazo or compound of Example 1,E. coli BAA-196 (TEM-10),4 µg/mL
same,MIC of Piperacillin with different concentrations of Tazo or compound of Example 1,E. coli BAA-201 (TEM-3); inhibitor 1 μg/mL,4 µg/mL
same,MIC of Piperacillin with different concentrations of Tazo or compound of Example 1,E. coli BAA-201 (TEM-3); inhibitor 2 μg/mL,2 µg/mL
same,MIC of Piperacillin with different concentrations of Tazo or compound of Example 1,E. coli BAA-201 (TEM-3); inhibitor 4 μg/mL,2 µg/mL
same,MIC of Piperacillin with different concentrations of Tazo or compound of Example 1,E. coli BAA-202 (SHV-1); inhibitor 1 μg/mL,>128 µg/mL
same,MIC of Piperacillin with different concentrations of Tazo or compound of Example 1,E. coli BAA-202 (SHV-1); inhibitor 2 μg/mL,>128 µg/mL
same,MIC of Piperacillin with different concentrations of Tazo or compound of Example 1,E. coli BAA-202 (SHV-1); inhibitor 4 μg/mL,>128 µg/mL
